Where a name gives a salt, the structure may show the parent alone.
Assays:
Format in all cases: physicochemical
[1] = Solid-state chemical stability of 25HC3S salts at 2-8° C., 60° C. and 80° C. (HPLC assay and degradation products); settings: for % Impurities, Total / % Impurities, 25-HC: ND = Not Detected; for % Impurities, 25-HC: 25-Hydroxy-Cholesterol; for % Recovery: vs 2-8° C.; for Stability after 1 week at 60° C. (in words): 1 week (after 3 weeks at 2-8° C.)
Description: (§1) Approximately 25 mg of each crystalline 25HC3S salt was added to 20 mL glass vials and each powder weight was recorded. Four vials were prepared for each salt and stored at 2-8° C. or 80° C. according to Table B2. The samples were scheduled initially to pull for testing at 3 weeks and 6 weeks' time points.
(§2) For those […] salts, the remaining vials stored at 2-8° C. for 3 weeks were allocated for storage at 60° C. for 1 week. Additional stability data was generated according to Table B3.
Based on the molecular weights, and expected UV response factors of each salt used in this study, the expected analytical sample concentrations were within the range of the 25HC3S sodium reference standards (0.75 mg/mL to 1.25 mg/mL as 25HC3S sodium salt). However, due to the lower-than-expected purity of the 25HC3S benzathine salt, an additional standard was prepared at 0.125 mg/mL as 25HC3S sodium salt.
Samples were prepared by pipetting 20 mL of 100% methanol into each vial and mixing well, with sonication and vortexing to fully dissolve the samples for HPLC analysis.
Samples were prepared by pipetting 20 mL of 100% methanol into each vial followed by two rounds of sonication for 30 minutes, with 30 seconds of vortexing before and after each round. Sample aliquots were then centrifuged at 10,000 RPM for 10 minutes and the supernatant collected for HPLC analysis.
Samples were prepared by pipetting 20 mL of 100% methanol into each vial, followed by 5 seconds of vortexing. The undissolved powder in methanol was quantitatively transferred into 200 mL volumetric flasks. The sample vials were rinsed 3 times with methanol, with each rinsate transferred to the 200 mL volumetric flasks. The volumetric flasks were filled to about 90% volume and sonicated for 10 minutes to fully dissolve the powder. The flasks were filled to volume with methanol, mixed well and aliquots collected for HPLC analysis.
HPLC analysis was performed.

[2] = Angle of repose of 25HC3S salts; settings: for Flow Property per USP<1174> Powder Flow: classification by angle of repose
Description: Angle of repose is measured as follows. Powder is poured from a funnel onto a flat surface until a cone of powder is created. The angle of repose is calculated according to the following equation: […]
Table C1, from USP<1174> Powder Flow, describes the powder flow properties correlating to the angles of repose.
The lower the angle of repose, the more flowable is a material. Powder with an angle of repose between 25° to 30° will show excellent flow through a hopper, feed frame, die table and die bore smoothly. From 41° to greater than 66°, you may experience powder flow difficulties like rat-holing or bridging within the hopper.
The angle of repose was determined by pouring approximately 2 grams of a 25HC3S salt through a 7 mm inner diameter plastic tube into the center of a 21.14 mm diameter rubber O-ring, resulting in the formation of a powder cone of fixed diameter. The height of the cone was estimated with calipers.

[3] = Final pH of the solubility sample solutions in aqueous media; settings: for pH of the solubility sample, 0.9% Sodium Chloride: 0.9% sodium chloride (blank 5.8); for pH of the solubility sample, 5% Dextrose: 5% dextrose (blank 4.7); for pH of the solubility sample, FaSSGF: FaSSGF (blank 1.5, 1.6); for pH of the solubility sample, FaSSIF: FaSSIF (blank 6.5, 6.5); for pH of the solubility sample, FeSSIF: FeSSIF (blank 4.9, 5.0); for pH of the solubility sample, Water: water (blank 6.3)
Description: 25HC3S salts were weighed in 8 mL or 4 mL glass vials with Teflon coated screw caps. Aliquots of each solvent were added to each sample and vortexed for about one minute until excess solid remained. Samples were placed on shaker at room temperature with 210 motion per minute shaking.
After one day, samples were pulled and checked if excess solid was present. About 1.5 mL aliquot of each sample was centrifuged at 12000 rpm for 12 to 15 minutes. […] Aliquots of the top clear solution of each centrifuged sample in MeOH, EtOH, IPA and ACN were diluted with diluent (water:MeOH 95:5) and assayed by HPLC. Samples of the salts in aqueous media were assayed by HPLC without dilution.
5.1 Solubility of 25HC3S Salts in Aqueous Media

[4] = Thermogravimetric analysis (TGA), weight loss
Description: Differential scanning calorimetry (DSC) is a thermoanalytical technique where the difference in the amount of heat required to increase the temperature of a sample and reference is measured as a function of temperature. Using this technique, phase transitions of a sample can be measured such as melting point. Decomposition can also be observed by DSC as can dehydration events. In the context of DSC measurements, there is also variability and the term “about” means ±1° C., and such variability is to be understood whether a DSC measurement is prefaced by “about” or not unless specified otherwise. Exemplary methods for collecting DSC data are set forth in Example 21. Thermogravimetric analysis, sometimes referred to as, thermal gravimetric analysis (TGA) is a thermal method of thermal analysis where the mass of a sample is measured as a function of time as the sample temperature changes. For example, when samples disclosed herein are heated and a loss in mass is measured prior to decomposition, this is likely indicative of the loss of water from the sample and may indicate that the sample being heated is a hydrate. Exemplary methods for collecting TGA are set forth in Example 23.
TG analysis was performed using a Mettler-Toledo TGA/DSC3 analyzer. Temperature and enthalpy adjustments were performed using indium, tin, and zinc, and then verified with indium. The balance was verified with calcium oxalate. The sample was placed in an open aluminum pan. The pan was hermetically sealed, the lid pierced, then inserted into the TG furnace. A weighed aluminum pan configured as the sample pan was placed on the reference platform. The furnace was heated under nitrogen. Each sample was heated from ambient temperature to 350° C. at 10° C./min. Although thermograms are plotted by reference temperature (x-axis), results are reported according to sample temperatures.

[5] = Overall rank order of powder flowability (angle of repose and Hausner ratio); settings: for Powder flowability, overall (in words): angle of repose and compressibility index/Hausner ratio combined; for Angle of Repose Rank Order / Hausner Ratio Rank Order / Overall Rank Order (Total Score): lower is better flow; for Overall Rank Order (Total Score): sum of both ranks
Excerpt: Table C5 was generated by adding the relative rank order of the 25HC3S salts for angle of repose and Hausner ratio results, and creating an Over All Rank Order of the salts powder flowability. The salts with the lower overall rank order score had better powder flowability.

[6] = Appearance (color, clumping, flowability) of stored 25HC3S salts
Description: as §1, §2
For appearance, each unopened vial was visually examined for color, clumping, and flowability.

[7] = 2-8° C., 3 wk, listed as 25HC3S calcium
[8] = 80° C., 3 wk, listed as 25HC3S calcium
[9] = 2-8° C., 3 wk, listed as 25HC3S potassium
[10] = 60° C., 1 wk, listed as 25HC3S potassium
[11] = 80° C., 3 wk, listed as 25HC3S potassium

SMILES: CC(CCCC(C)(C)O)C1CCC2C3CC=C4CC(OS(=O)(=O)O)CCC4(C)C3CCC12C (stereo not drawn) [Salt #2]
- Assay ([1]; 2-8° C., 3 wk, 30240 min, listed as 25HC3S calcium): 92.9 % w/w
- % Impurities, Total [1, 7]: 1.6%
- Overall physical and chemical stability (in words) ([1]; 2-8° C., 60° C., 80° C.): least physically and chemically stable
- Overall physical and chemical stability (in words) ([1]; 2-8° C., 60° C., 80° C., listed as 25HC35S calcium): least stable
- % Impurities, 25-HC [1, 7]: 0.2%
- Physical and chemical solid-state stability (comments) ([1]; 60° C., 1 week, listed as 25HC3S Calcium): Totally decomposed after 1 week at 60 °C
- Assay ([1]; 60° C., 1 wk (after 3 weeks at 2-8° C.), 10080 min, listed as 25HC3S calcium, 10080 min): 0.0 % w/w
- % Recovery of 2-8° C./3 wk vs 60° C./1 wk ([1]; 60° C., 1 wk, 10080 min, listed as 25HC3S calcium): 0.0%
- Physical and chemical solid-state stability (comments) ([1]; 80° C., 3 weeks, listed as 25HC3S Calcium): Totally decomposed after 1 week at 60 °C and after 3 weeks at 80 °C
- % Recovery ([1]; 80° C., 3 wk, 30240 min, listed as 25HC3S calcium, 30240 min): 0.0%
- Assay ([1]; 80° C., 3 wk, 30240 min, listed as 25HC3S calcium): 0.0 % w/w
- % Impurities, Total [1, 8]: 100%
- degradants dissolved in the diluent (comments) ([1]; after 1 week at 60° C. and 3 weeks at 80° C.): degradants were dissolved in the diluent.extract
- Stability after 1 week at 60° C. (in words) ([1]; solid state, 60° C.): totally decomposed
- Stability after 3 weeks at 80° C. (in words) ([1]; solid state, 80° C., 3 weeks): totally decomposed
- Flow Property per USP<1174> Powder Flow ([2]; listed as 25HC3S calcium): Passable - may hang up
- Angle of Repose ([2]; listed as 25HC3S calcium): 42.6 degrees
- Angle of Repose, Rounded Whole Number ([2]; listed as 25HC3S calcium): 43 degrees
- pH of the solubility sample, 0.9% Sodium Chloride ([3]; listed as 25HC3S calcium): 8.5
- pH of solubility sample solution in 0.9% sodium chloride ([3]; 0.9% sodium chloride (medium pH 5.8)): 8.5
- pH of the solubility sample, 5% Dextrose ([3]; listed as 25HC3S calcium): 7.2
- pH of the solubility sample, FaSSGF [3]: 1.6
- pH of the solubility sample, FaSSIF ([3]; listed as 25HC3S calcium): 6.5
- pH of the solubility sample, FeSSIF [3]: 5.0
- pH of the solubility sample, Water ([3]; listed as 25HC3S calcium): 8.8
- Weight loss by TGA, about 112° C. to about 130° C. ([4]; about 112° C. to about 130° C.): 3.1%
- Weight loss by TGA, room temperature to about 93° C. ([4]; room temperature to about 93° C.): about 0.9%
- Powder flowability, overall (in words) ([5]; listed as calcium): poorer flowability
- Angle of Repose Rank Order ([5]; listed as 25HC3S calcium): 11
- Hausner Ratio Rank Order ([5]; listed as 25HC3S calcium): 11
- Overall Rank Order (Total Score) ([5]; listed as 25HC3S calcium): 22
- Appearance [6, 7]: White, free flowing powder with some
- Appearance ([6]; 60° C., 1 wk (after 3 weeks at 2-8° C.), listed as 25HC3S calcium): Brown, melted material stuck to bottom
- Appearance after 3 weeks at 80° C. ([6]; 80° C.): completely burned
- Appearance [6, 8]: Dark brown, melted material stuck to

SMILES: CC(CCCC(C)(C)O)C1CCC2C3CC=C4CC(OS(=O)(=O)O)CCC4(C)C3CCC12C (stereo not drawn) [Salt #1]
- % Impurities, Total [1, 9]: 1.3%
- % Impurities, 25-HC [1, 9]: 0.2%
- % Impurities, 25-HC [1, 10]: 0.3%
- Physical and chemical solid-state stability (comments) ([1]; 60° C., 1 week, listed as 25HC3S Potassium): Stable after 1 week at 60 C.
- Assay ([1]; 60° C., 1 wk (after 3 weeks at 2-8° C.), 10080 min, listed as 25HC3S potassium, 10080 min): 103.1 % w/w
- % Recovery of 2-8° C./3 wk vs 60° C./1 wk ([1]; 60° C., 1 wk, 10080 min, listed as 25HC3S potassium): 105.4%
- % Impurities, Total [1, 10]: 1.6%
- Physical and chemical solid-state stability (comments) ([1]; 80° C., 3 weeks, listed as 25HC3S Potassium): totally decomposed after 3 weeks
- % Recovery ([1]; 80° C., 3 wk, 30240 min, listed as 25HC3S potassium, 30240 min): 0.0%
- Assay ([1]; 80° C., 3 wk, 30240 min, listed as 25HC3S potassium): 0.0 % w/w
- % Impurities, Total [1, 11]: 100%
- remaining at 504 h ([1]; solid state, 2-8° C., 3 wk, read-out: Assay): 97.8%
- Stability after 1 week at 60° C. (in words) ([1]; solid state, 60° C.): stable
- Stability after 3 weeks at 80° C. (in words) ([1]; solid state, 80° C., 3 weeks): totally decomposed
- Flow Property per USP<1174> Powder Flow ([2]; listed as 25HC3S potassium): Fair - aid not needed
- Angle of Repose ([2]; listed as 25HC3S potassium): 37.7 degrees
- Angle of Repose, Rounded Whole Number ([2]; listed as 25HC3S potassium): 38 degrees
- pH of the solubility sample, 0.9% Sodium Chloride ([3]; listed as 25HC3S potassium): 8.4
- pH of the solubility sample, 5% Dextrose ([3]; listed as 25HC3S potassium): 7.3
- pH of the solubility sample, FaSSGF [3]: 1.6
- pH of the solubility sample, FaSSIF ([3]; listed as 25HC3S potassium): 6.5
- pH of the solubility sample, FeSSIF [3]: 5.0
- pH of solubility sample solution in water ([3]; water): 8.9
- pH of the solubility sample, Water ([3]; listed as 25HC3S potassium): 8.9
- Weight loss by TGA, 100° C. to 180° C. ([4]; 100° C. to 180° C.): 1.7%
- Weight loss by TGA to about 100° C. ([4]; to about 100° C.): about 0.9%
- Powder flowability, overall (in words) ([5]; listed as potassium): top three
- Angle of Repose Rank Order ([5]; listed as 25HC3S potassium): 6
- Hausner Ratio Rank Order ([5]; listed as 25HC3S potassium): 3
- Overall Rank Order (Total Score) ([5]; listed as 25HC3S potassium): 9
- Appearance [6, 9]: White, free flowing powder with some
- Appearance ([6]; 60° C., 1 wk (after 3 weeks at 2-8° C.), listed as 25HC3S potassium): White, free flowing powder with some
- Appearance after 3 weeks at 80° C. ([6]; 80° C.): completely burned
- Appearance [6, 11]: Dark brown powder, stuck to bottom of
